Measured values reported in ChEMBL document CHEMBL1201862, “PubChem BioAssay data set” (2004).
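Exposure lasted 48 hours, with cells grown in 96-well plates and compounds tested at five concentrations. Here, GI50 denotes the concentration required for 50% inhibition of growth.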 Active and inactive are the calls of the source. Rule as the data show it: active = GI50 up to about 1.1 µM and inactive = higher.

Tests used:
Test in all cases: NCI anticancer screen, dose series, 48 h
786-0 = system: 786-0
ACHN = system: ACHN
CAKI-1 = system: CAKI-1
DU-145 = system: DU-145
EKVX = system: EKVX
HCT-15 = system: HCT-15
Hs-578T = system: Hs-578T
K562 = system: K562
KM12 = system: KM12
MDA-MB-435 = system: MDA-MB-435
MDA-N = system: MDA-N
MOLT-4 = system: MOLT-4
NCI/ADR-RES = system: NCI/ADR-RES
OVCAR-8 = system: OVCAR-8
SK-MEL-28 = system: SK-MEL-28
SK-MEL-2 = system: SK-MEL-2
TK-10 = system: TK-10
UACC-257 = system: UACC-257
UO-31 = system: UO-31
HL-60 = system: HL-60

COC(=O)CC1c2ccccc2N2C(=O)Cc3c([nH]c4ccccc34)C12 (centres undefined)
GI50 (786-0): 58.6 µM (inactive)
GI50 (ACHN): > 100 µM (inactive)
GI50 (CAKI-1): > 100 µM (inactive)
GI50 (DU-145): > 100 µM (inactive)
GI50 (EKVX): > 100 µM (inactive)
GI50 (HCT-15): > 100 µM
GI50 (Hs-578T): 25.4 µM (inactive)
GI50 (K562): 35.8 µM (inactive)
GI50 (KM12): > 100 µM (inactive)
GI50 (MDA-MB-435): > 100 µM (inactive)
GI50 (MDA-N): > 100 µM (inactive)
GI50 (MOLT-4): > 100 µM (inactive)
GI50 (NCI/ADR-RES): > 100 µM (inactive)
GI50 (OVCAR-8): > 100 µM (inactive)
GI50 (SK-MEL-28): > 100 µM (inactive)
GI50 (SK-MEL-2): > 100 µM (inactive)
GI50 (TK-10): > 100 µM (inactive)
GI50 (UACC-257): > 100 µM (inactive)
GI50 (UO-31): > 100 µM (inactive)

CSc1nc2c(c(N(C)C)n1)C(O)n1c(nc3ccccc31)S2 (centres undefined)
GI50 (786-0): 26.8 µM (inactive)
GI50 (ACHN): > 83.9 µM (inactive)
GI50 (CAKI-1): > 58.5 µM (inactive)
GI50 (DU-145): 69.7 µM (inactive)
GI50 (EKVX): > 100 µM (inactive)
GI50 (HCT-15): > 100 µM
GI50 (Hs-578T): 14.1 µM (inactive)
GI50 (K562): > 100 µM (inactive)
GI50 (KM12): > 100 µM (inactive)
GI50 (MDA-MB-435): > 100 µM (inactive)
GI50 (MDA-N): > 55.1 µM (inactive)
GI50 (MOLT-4): > 100 µM (inactive)
GI50 (NCI/ADR-RES): 37.8 µM (inactive)
GI50 (OVCAR-8): 14.6 µM (inactive)
GI50 (SK-MEL-28): 46.2 µM (inactive)
GI50 (SK-MEL-2): > 100 µM (inactive)
GI50 (TK-10): > 53.2 µM (inactive)
GI50 (UACC-257): > 100 µM (inactive)
GI50 (UO-31): > 50.2 µM (inactive)

C/C(=N\Nc1ccc([N+](=O)[O-])cc1[N+](=O)[O-])c1ccc2ccccc2n1
GI50 (786-0): 78.3 µM (inactive)
GI50 (ACHN): 42.8 µM (inactive)
GI50 (CAKI-1): 58.9 µM (inactive)
GI50 (DU-145): > 100 µM (inactive)
GI50 (EKVX): > 100 µM (inactive)
GI50 (HCT-15): 60.3 µM
GI50 (Hs-578T): 25.3 µM (inactive)
GI50 (K562): > 100 µM (inactive)
GI50 (KM12): > 100 µM (inactive)
GI50 (MDA-MB-435): > 100 µM (inactive)
GI50 (MDA-N): > 100 µM (inactive)
GI50 (MOLT-4): > 100 µM (inactive)
GI50 (NCI/ADR-RES): 46 µM (inactive)
GI50 (OVCAR-8): 47.3 µM (inactive)
GI50 (SK-MEL-28): > 100 µM (inactive)
GI50 (SK-MEL-2): > 100 µM (inactive)
GI50 (TK-10): 39.6 µM (inactive)
GI50 (UACC-257): > 100 µM (inactive)
GI50 (UO-31): 51.4 µM (inactive)

C[n+]1c(-c2ccc(/C=N/Nc3ccnc(N/N=C/c4ccc(-c5cn6ccsc6[n+]5C)cc4)n3)cc2)cn2ccsc21
GI50 (786-0): 15.8 µM (inactive)
GI50 (ACHN): 23.9 µM (inactive)
GI50 (CAKI-1): 18.5 µM (inactive)
GI50 (DU-145): 27.7 µM (inactive)
GI50 (EKVX): 18.8 µM (inactive)
GI50 (HCT-15): 27.5 µM
GI50 (Hs-578T): 69.5 µM (inactive)
GI50 (K562): 12.1 µM (inactive)
GI50 (KM12): 22.1 µM (inactive)
GI50 (MDA-MB-435): 4.57 µM (inactive)
GI50 (MDA-N): 3.94 µM (inactive)
GI50 (MOLT-4): 17.8 µM (inactive)
GI50 (NCI/ADR-RES): 39.7 µM (inactive)
GI50 (OVCAR-8): 28.9 µM (inactive)
GI50 (SK-MEL-2): 29.8 µM (inactive)
GI50 (TK-10): 25.8 µM (inactive)
GI50 (UACC-257): 25.5 µM (inactive)
GI50 (UO-31): 18.8 µM (inactive)

COc1ccc(/N=N/c2c(O)ccc3ccccc23)cc1
GI50 (786-0): 61.8 µM (inactive)
GI50 (ACHN): 20.4 µM (inactive)
GI50 (CAKI-1): > 100 µM (inactive)
GI50 (EKVX): 14.3 µM (inactive)
GI50 (HCT-15): 57.8 µM
GI50 (HL-60): > 100 µM (inactive)
GI50 (Hs-578T): 11.2 µM (inactive)
GI50 (KM12): 12.1 µM (inactive)
GI50 (MDA-MB-435): > 100 µM (inactive)
GI50 (MDA-N): > 100 µM (inactive)
GI50 (MOLT-4): > 100 µM (inactive)
GI50 (NCI/ADR-RES): 22.4 µM (inactive)
GI50 (OVCAR-8): 13.2 µM (inactive)
GI50 (SK-MEL-28): > 100 µM (inactive)
GI50 (SK-MEL-2): 35.6 µM (inactive)
GI50 (TK-10): 17.1 µM (inactive)
GI50 (UACC-257): > 100 µM (inactive)
GI50 (UO-31): 31.3 µM (inactive)

CCC(C)C(NC(=O)c1cccc2c(=O)c3ccccc3[nH]c12)C(=O)O (centres undefined)
GI50 (786-0): > 100 µM (inactive)
GI50 (ACHN): 86.7 µM (inactive)
GI50 (DU-145): > 100 µM (inactive)
GI50 (EKVX): > 100 µM (inactive)
GI50 (HCT-15): > 100 µM
GI50 (Hs-578T): > 100 µM (inactive)
GI50 (K562): 91.8 µM (inactive)
GI50 (KM12): 61.1 µM (inactive)
GI50 (MDA-MB-435): > 100 µM (inactive)
GI50 (MDA-N): > 100 µM (inactive)
GI50 (MOLT-4): 82.6 µM (inactive)
GI50 (NCI/ADR-RES): > 100 µM (inactive)
GI50 (OVCAR-8): > 100 µM (inactive)
GI50 (SK-MEL-28): > 100 µM (inactive)
GI50 (SK-MEL-2): > 100 µM (inactive)
GI50 (TK-10): > 100 µM (inactive)
GI50 (UO-31): 48.6 µM (inactive)

N#C/C(=C\NC(=S)Nc1ccc(S(=O)(=O)Nc2ccccn2)cc1)C(N)=O
GI50 (786-0): > 100 µM (inactive)
GI50 (ACHN): > 100 µM (inactive)
GI50 (CAKI-1): > 100 µM (inactive)
GI50 (DU-145): > 100 µM (inactive)
GI50 (EKVX): > 100 µM (inactive)
GI50 (HCT-15): > 100 µM
GI50 (Hs-578T): > 100 µM (inactive)
GI50 (K562): 47.9 µM (inactive)
GI50 (KM12): > 100 µM (inactive)
GI50 (MDA-MB-435): > 100 µM (inactive)
GI50 (MDA-N): > 100 µM (inactive)
GI50 (MOLT-4): 25.5 µM (inactive)
GI50 (NCI/ADR-RES): > 100 µM (inactive)
GI50 (OVCAR-8): > 100 µM (inactive)
GI50 (SK-MEL-28): > 100 µM (inactive)
GI50 (SK-MEL-2): > 100 µM (inactive)
GI50 (TK-10): > 100 µM (inactive)
GI50 (UACC-257): > 100 µM (inactive)
GI50 (UO-31): > 100 µM (inactive)
